Measurements reported in patent publication US8821887B2, “T-cell antigen peptide from allergen for stimulation of IL-10 production” (Circassia Limited, priority 2008, dated 2014).
Non-standard residues stand in square brackets, D forms with d. No end group written: not given here. 5‑aminobutyric acid = not defined here

system: PBMC's; test: Cytokine release assay (IL-10 release from PBMCs, ELISA or multiplex bead array); type: cell-based; settings: house dust mite peptides of Example 1; PBMCs of dust mite allergic individuals; 5 days stimulation; FIGS. 1 and 2
Experimental: FIGS. 1 and 2 show mean IL-10 release (y axis, pg/ml) in response to the house dust mite peptides shown on the x axis, for a population of dust mite allergic individuals.
FIGS. 3 and 4 show mean IL-10 release (y axis, pg/ml) in response to the ragweed peptides shown on the x axis, for a population of ragweed allergic individuals.
Cytokine secretion profiles from PBMC's are analysed in response to the peptide stimulation using the peptides from Examples 1 and 2. Supernatants from the cytokine release assay were tested for the presence of IL-10, using either an ELISA assay or a multiplex bead array assay. A typical cytokine release assay requires 40×10^6 PBMC's per subject. In more detail, 250 μl of a 200 μg/ml solution of the appropriate antigen or peptide concentration is distributed into the appropriate wells of 48 well plates. Plates are then incubated in a humidified 5% CO2 incubator at 37° C. for a maximum of 4 hours. 250 μl of a 5×10^6 cell/ml PBMC suspension is then added to each well and the plates returned to the incubator for 5 days. Following stimulation, samples of culture supernatant are harvested for testing by ELISA or multiplex bead assay according to standard protocols.

| Sequence | IL-10 production compared with other peptides | IL-10 release compared with whole allergen |
| --- | --- | --- |
| DEFKNRFLMSAEAFE [HDM202] | higher IL-10 production than other peptides | higher IL-10 release than whole allergen |
| ELVDSASQHG (Description of Artificial Sequence: Synthetic HDM03W peptide) | higher IL-10 production than other peptides | higher IL-10 release than whole allergen |
| EQELVDSASQHG [HDM03V] | higher IL-10 production than other peptides |  |
| RNQSLDLAEQELVD ? ASQH (RNQSLDLAEQELVD[5‑aminobutyric acid]ASQH; not fully specified; reading uncertain) [HDM03E, character = 2-aminobutryic acid] | higher IL-10 production than other peptides | higher IL-10 release than whole allergen |
| RNQSLDLAEQELVDSASQH (Description of Artificial Sequence: Synthetic HDM03D peptide) | higher IL-10 production than other peptides |  |

same assay, conditions: ragweed peptides of Example 2; PBMCs of ragweed allergic individuals; 5 days stimulation; FIGS. 3 and 4

| Sequence | IL-10 production compared with other peptides | IL-10 release compared with whole allergen |
| --- | --- | --- |
| GEAAIKLTSSAGVLS [RGW07] | higher IL-10 production than other peptides |  |
| GESALSLTSSAGVLS [RGW07B] | higher IL-10 production than other peptides |  |
| KGEAAIKLTSSAGVLSK [RGW07C] | higher IL-10 production than other peptides |  |
| KGEAAIKLTSSAGVLSKK [RGW07D] | higher IL-10 production than other peptides | higher IL-10 release than whole allergen |
